Data taken from patent US20250074891A1 (Anaxis Pharma Pty Ltd., priority 2021, published 2025).

Assays:
Conditions in all cases: Table 35
MLKL (full length) = MLKL (full length) (Homo sapiens (Human), UniProt Q8NB16); experiment: KINOMEscan binding assay, MLKL (full length)
Experimental: (§1) Kinase assays. For most assays, kinase-tagged T7 phage strains were grown in parallel in 24-well blocks in an E. coli host derived from the BL21 strain. E. coli were grown to log-phase and infected with T7 phage from a frozen stock (multiplicity of infection=0.4) and incubated with shaking at 32° C. until lysis (90-150 minutes).
(§2) The Hill Slope was set to −1.

RIP1 = RIP1 (Homo sapiens (Human), UniProt Q13546); experiment: KINOMEscan binding assay, RIP1
Chain of RIP1 (Q13546 whole entry): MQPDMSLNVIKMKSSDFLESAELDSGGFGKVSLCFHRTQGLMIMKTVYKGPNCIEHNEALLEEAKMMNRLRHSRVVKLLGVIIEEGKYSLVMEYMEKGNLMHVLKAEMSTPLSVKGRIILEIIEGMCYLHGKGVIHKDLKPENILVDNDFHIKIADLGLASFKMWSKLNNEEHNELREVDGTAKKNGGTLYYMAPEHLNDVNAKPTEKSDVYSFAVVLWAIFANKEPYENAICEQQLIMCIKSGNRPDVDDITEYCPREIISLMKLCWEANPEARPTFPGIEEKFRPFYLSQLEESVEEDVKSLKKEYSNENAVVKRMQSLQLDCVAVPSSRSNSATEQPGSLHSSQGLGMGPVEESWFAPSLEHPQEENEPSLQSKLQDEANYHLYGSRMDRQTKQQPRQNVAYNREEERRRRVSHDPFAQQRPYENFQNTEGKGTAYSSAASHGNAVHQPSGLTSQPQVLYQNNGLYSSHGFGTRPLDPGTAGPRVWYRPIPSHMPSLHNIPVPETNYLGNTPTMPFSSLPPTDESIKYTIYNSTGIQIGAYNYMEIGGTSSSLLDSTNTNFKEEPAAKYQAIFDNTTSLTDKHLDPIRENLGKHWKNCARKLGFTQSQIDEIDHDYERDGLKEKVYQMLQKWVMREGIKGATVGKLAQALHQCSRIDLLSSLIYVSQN

RIP3 = RIP3 (Homo sapiens (Human), UniProt Q9Y572); experiment: KINOMEscan binding assay, RIP3
Chain of RIP3 (Q9Y572 whole entry): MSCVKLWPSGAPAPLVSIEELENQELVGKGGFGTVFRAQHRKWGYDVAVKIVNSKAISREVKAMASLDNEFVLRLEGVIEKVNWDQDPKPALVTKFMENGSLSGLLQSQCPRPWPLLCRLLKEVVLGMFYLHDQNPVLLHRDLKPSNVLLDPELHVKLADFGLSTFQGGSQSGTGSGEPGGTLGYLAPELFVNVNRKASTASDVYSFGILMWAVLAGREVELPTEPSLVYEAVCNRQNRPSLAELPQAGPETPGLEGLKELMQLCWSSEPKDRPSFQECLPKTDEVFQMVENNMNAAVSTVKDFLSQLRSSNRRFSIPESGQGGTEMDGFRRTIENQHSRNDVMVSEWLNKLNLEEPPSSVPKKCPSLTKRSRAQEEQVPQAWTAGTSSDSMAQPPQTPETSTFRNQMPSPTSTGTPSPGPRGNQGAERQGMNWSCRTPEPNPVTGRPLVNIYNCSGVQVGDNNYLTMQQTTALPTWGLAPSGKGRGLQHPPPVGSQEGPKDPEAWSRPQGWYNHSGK
Experimental: as §1, §2

Chain of MLKL (full length) (Q8NB16 whole entry): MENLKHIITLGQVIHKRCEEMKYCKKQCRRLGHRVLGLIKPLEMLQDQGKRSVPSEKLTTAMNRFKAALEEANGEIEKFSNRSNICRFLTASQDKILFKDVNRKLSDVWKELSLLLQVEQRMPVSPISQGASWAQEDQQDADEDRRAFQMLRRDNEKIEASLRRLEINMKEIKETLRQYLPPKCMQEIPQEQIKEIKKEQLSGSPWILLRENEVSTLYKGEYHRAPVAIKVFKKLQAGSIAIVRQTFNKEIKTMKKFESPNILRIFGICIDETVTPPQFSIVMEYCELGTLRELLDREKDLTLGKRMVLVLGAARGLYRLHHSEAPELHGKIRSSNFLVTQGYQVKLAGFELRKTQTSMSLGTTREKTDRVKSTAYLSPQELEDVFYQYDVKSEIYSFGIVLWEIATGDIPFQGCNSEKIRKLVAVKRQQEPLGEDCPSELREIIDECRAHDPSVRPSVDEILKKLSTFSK

| Structure (SMILES) | Kd (MLKL (full length)) | Kd (RIP1) | Kd (RIP3) |
| --- | --- | --- | --- |
| C[C@H](Oc1cc(-c2c(C(N)=O)c(Nc3cnccn3)nn2C)ccc1NS(=O)(=O)C(F)F)c1ccc(F)cc1 [Compound 253, 5-[4-(difluoromethanesulfonamido)-3-[(1S)-1-(4-fluorophenyl)ethoxy]phenyl]-1-methyl-3-[(pyrazin-2-yl)amino]-1H-pyrazole-4-carboxamide] | < 0.01 µM | > 30 µM | > 30 µM |
| C[C@H](Oc1cc(-c2n[nH]c(Nc3cnccn3)c2C(N)=O)ccc1NS(=O)(=O)CC(F)(F)F)c1cccc(Cl)c1 [Compound 256, 3-{3-[(1S)-1-(3-chlorophenyl)ethoxy]-4-(2,2,2-trifluoroethane-sulfonamido)phenyl}-5-[(pyrazin-2-yl)amino]-1H-pyrazole-4-carboxamide] | < 0.01 µM | > 30 µM | > 30 µM |
| NC(=O)c1cccc(Nc2[nH]nc(-c3ccc(NS(=O)(=O)C(F)F)cc3)c2C(N)=O)n1 [Compound 257, 6-({4-carbamoyl-3-[4-(difluoromethanesulfonamido)phenyl]-1H-pyrazol-5-yl}amino)pyridine-2-carboxamide] | < 0.01 µM | > 30 µM | > 30 µM |
| N#Cc1cccc(Nc2[nH]nc(-c3ccc(NS(=O)(=O)C(F)F)cc3)c2C(N)=O)n1 [Compound 258, 5-[(6-cyanopyridin-2-yl)amino]-3-[4-(difluoromethanesulfonamido)phenyl]-1H-pyrazole-4-carboxamide] | < 0.01 µM | > 30 µM | > 30 µM |
| C[C@H](Oc1cc(-c2n[nH]c(Nc3cnccn3)c2C(N)=O)ccc1NS(=O)(=O)CC(F)(F)F)c1ccc(Cl)cc1 [Compound 259, 3-{3-[(1S)-1-(4-chlorophenyl)ethoxy]-4-(2,2,2-trifluoroethane-sulfonamido)phenyl}-5-[(pyrazin-2-yl)amino]-1H-pyrazole-4-carboxamide] | < 0.01 µM | > 30 µM | > 30 µM |
| C[C@H](Oc1cc(-c2n[nH]c(Nc3ccccn3)c2C(N)=O)ccc1NS(=O)(=O)C(F)F)c1ccc(F)cc1 [Compound 260] | < 0.01 µM | > 30 µM | > 30 µM |
| CCS(=O)(=O)Nc1ccc(-c2n[nH]c(Nc3cnccn3)c2C(N)=O)cc1OCc1ccccn1 [Compound 261, 3-{4-ethanesulfonamido-3-[(pyridin-2-yl)methoxy]phenyl}-5-[(pyrazin-2-yl)amino]-1H-pyrazole-4-carboxamide] | < 0.01 µM | > 30 µM | > 30 µM |
| NC(=O)c1c(-c2ccc(NS(=O)(=O)CC(F)(F)F)c(OCc3ccc(Cl)cn3)c2)n[nH]c1Nc1cnccn1 [Compound 262, 3-{3-[(5-chloropyridin-2-yl)methoxy]-4-(2,2,2-trifluoroethane-sulfonamido)phenyl}-5-[(pyrazin-2-yl)amino]-1H-pyrazole-4-carboxamide] | < 0.01 µM | > 30 µM | > 30 µM |
| Cc1cnc(Nc2[nH]nc(-c3ccc(NS(=O)(=O)CC(F)(F)F)c(O[C@@H](C)c4ccc(F)cc4)c3)c2C(N)=O)cn1 [Compound 264, 3-{3-[(1S)-1-(4-fluorophenyl)ethoxy]-4-(2,2,2-trifluoroethanesulfonamido)phenyl}-5-[(5-methylpyrazin-2-yl)amino]-1H-pyrazole-4-carboxamide] | < 0.01 µM | > 30 µM | > 30 µM |
| NC(=O)c1c(-c2ccc(NS(=O)(=O)CC(F)(F)F)c(OC(c3ccc(F)cc3)C3CCC3)c2)n[nH]c1Nc1cnccn1 (stereo not drawn) [Compound 266, 3-{3-[cyclobutyl(4-fluorophenyl)methoxy]-4-(2,2,2-trifluoroethanesulfonamido)phenyl}-5-[(pyrazin-2-yl)amino]-1H-pyrazole-4-carboxamide] | < 0.01 µM | > 30 µM | > 30 µM |
| C[C@H](Oc1cc(-c2n[nH]c(Nc3cnccn3)c2C(N)=O)ccc1NS(=O)(=O)CC(F)(F)F)c1ccccn1 [Compound 267, 5-[(pyrazin-2-yl)amino]-3-{3-[(1S)-1-(pyridin-2-yl)ethoxy]-4-(2,2,2-trifluoroethanesulfonamido)phenyl]-1H-pyrazole-4-carboxamide] | < 0.01 µM | > 30 µM | > 30 µM |
| NC(=O)c1c(-c2ccc(NS(=O)(=O)CC(F)(F)F)cc2)n[nH]c1Nc1ccccn1 [Compound 268, 5-[(pyridin-2-yl)amino]-3-[4-(2,2,2-trifluoroethanesulfonamido)phenyl]-1H-pyrazole-4-carboxamide] | < 0.01 µM | > 30 µM | > 30 µM |
| NC(=O)c1c(-c2ccc(NS(=O)(=O)CC(F)(F)F)c(OCc3ccc(Cl)cc3)c2)n[nH]c1Nc1ccccn1 [Compound 269, 3-{3-[(4-chlorophenyl)methoxy]-4-(2,2,2-trifluoroethanesulfonamido)phenyl}-5-[(pyridin-2-yl)amino]-1H-pyrazole-4-carboxamide] | < 0.01 µM | > 30 µM | > 30 µM |
| Cc1nn(C)cc1Nc1[nH]nc(-c2ccc(NS(=O)(=O)C(F)F)c(O[C@@H](C)c3ccc(F)cc3)c2)c1C(N)=O [Compound 270, (S)-3-(4-((difluoromethyl)sulfonamido)-3-(1-(4-fluorophenyl)ethoxy)phenyl)-5-((1,3-dimethyl-1H-pyrazol-4-yl)amino)-1H-pyrazole-4-carboxamide] | < 0.01 µM | > 30 µM | > 30 µM |
| C[C@@H](Oc1cc(-c2n[nH]c(Nc3cnccn3)c2C(N)=O)ccc1NS(=O)(=O)C(F)F)c1ccc(F)cc1 [Compound 271, (R)-3-(4-((difluoro-methyl)sulfon-amido)-3-(1-(4-fluorophenyl)ethoxy)phenyl)-5-(pyrazin-2-ylamino)-1H-pyrazole-4-carboxamide] | < 0.01 µM | > 30 µM | > 30 µM |
| CCc1cc(Nc2[nH]nc(-c3ccc(NS(=O)(=O)C(F)F)c(O[C@@H](C)c4ccc(F)cc4)c3)c2C(N)=O)no1 [Compound 274, (S)-3-(4-((difluoromethyl)sulfonamido)-3-(1-(4-fluorophenyl)ethoxy)phenyl)-5-((5-ethylisoxazol-3-yl)amino)-1H-pyrazole-4-carboxamide] | < 0.01 µM | > 30 µM | > 30 µM |
| NC(=O)c1c(-c2ccc(NS(=O)(=O)C(F)F)c(OCc3nccs3)c2)n[nH]c1Nc1cnccn1 [Compound 275, 3-(4-((difluoro-methyl)sulfon-amido)-3-(thiazol-2-ylmethoxy)phenyl)-5-(pyrazin-2-ylamino)-1H-pyrazole-4-carboxamide] | < 0.01 µM | > 30 µM | > 30 µM |
| C[C@H](Oc1cc(-c2n[nH]c(Nc3cc(C4(C)CC4)on3)c2C(N)=O)ccc1NS(=O)(=O)C(F)F)c1ccc(F)cc1 [Compound 276, (S)-3-(4-((difluoromethyl)sulfonamido)-3-(1-(4-fluorophenyl)ethoxy)phenyl)-5-((5-(1-methylcyclopropyl)isoxazol-3-yl)amino)-1H-pyrazole-4-carboxamide] | < 0.01 µM | > 30 µM | > 30 µM |
| C[C@H](Oc1cc(-c2n[nH]c(Nc3cc(C(F)(F)F)n(C)n3)c2C(N)=O)ccc1NS(=O)(=O)C(F)F)c1ccc(F)cc1 [Compound 277, (S)-3-(4-((difluoromethyl)sulfonamido)-3-(1-(4-fluorophenyl)ethoxy)phenyl)-5-((1-methyl-5-(trifluoromethyl)-1H-pyrazol-3-yl)amino)-1H-pyrazole-4-carboxamide] | < 0.01 µM | > 30 µM | > 30 µM |
| C[C@H](Oc1cc(-c2n[nH]c(Nc3ccc(C4CCOCC4)cn3)c2C(N)=O)ccc1NS(=O)(=O)C(F)F)c1ccc(F)cc1 [Compound 278] | < 0.01 µM | > 30 µM | > 30 µM |
| C[C@H](Oc1cc(-c2n[nH]c(Nc3cc(C4CCC4)on3)c2C(N)=O)ccc1NS(=O)(=O)C(F)F)c1ccc(F)cc1 [Compound 281, (S)-5-((5-cyclobutylisoxazol-3-yl)amino)-3-(4-((difluoromethyl)sulfonamido)-3-(1-(4-fluorophenyl)ethoxy)phenyl)-1H-pyrazole-4-carboxamide] | < 0.01 µM | > 30 µM | > 30 µM |
| C[C@H](Oc1cc(-c2n[nH]c(Nc3cc(C(C)(C)C)on3)c2C(N)=O)ccc1NS(=O)(=O)C(F)F)c1ccc(F)cc1 [Compound 282, (S)-5-((5-(tert-butyl)isoxazol-3-yl)amino)-3-(4-((difluoromethyl)sulfonamido)-3-(1-(4-fluorophenyl)ethoxy)phenyl)-1H-pyrazole-4-carboxamide] | < 0.01 µM | > 30 µM | > 30 µM |
| C[C@H](Oc1cc(-c2n[nH]c(Nc3ncn(C)n3)c2C(N)=O)ccc1NS(=O)(=O)C(F)F)c1ccc(F)cc1 [Compound 283, (S)-3-(4-((difluoromethyl)sulfonamido)-3-(1-(4-fluorophenyl)ethoxy)phenyl)-5-((1-methyl-1H-1,2,4-triazol-3-yl)amino)-1H-pyrazole-4-carboxamide] | < 0.01 µM | > 30 µM | > 30 µM |
| Cc1nc(Nc2[nH]nc(-c3ccc(NS(=O)(=O)C(F)F)c(O[C@@H](C)c4ccc(F)cc4)c3)c2C(N)=O)sc1C [Compound 284, (S)-3-(4-((difluoromethyl)sulfonamido)-3-(1-(4-fluorophenyl)ethoxy)phenyl)-5-((4,5-dimethylthiazol-2-yl)amino)-1H-pyrazole-4-carboxamide] | < 0.01 µM | > 30 µM | > 30 µM |
| Cc1cn(C)nc1Nc1[nH]nc(-c2ccc(NS(=O)(=O)C(F)F)c(O[C@@H](C)c3ccc(F)cc3)c2)c1C(N)=O [Compound 286, (S)-3-(4-((difluoromethyl)sulfonamido)-3-(1-(4-fluorophenyl)ethoxy)phenyl)-5-((1,4-dimethyl-1H-pyrazol-3-yl)amino)-1H-pyrazole-4-carboxamide] | < 0.01 µM | > 30 µM | > 30 µM |
